Data from patent US8008290B2, “Compounds” (priority 2009, dated 2011).

Assays:
[1] = molecular target: T1, Human recombinant cathepsin K (Homo sapiens, UniProt P43235); experiment: In vitro cathepsin Ki inhibition measurement, cathepsin K; assay type: biochemical; conditions: for Ki: human cathepsin K, steady-state, competitive model, read-out: In vitro Ki (nM) vs Cath K
T1 sequence (P43235 115-329): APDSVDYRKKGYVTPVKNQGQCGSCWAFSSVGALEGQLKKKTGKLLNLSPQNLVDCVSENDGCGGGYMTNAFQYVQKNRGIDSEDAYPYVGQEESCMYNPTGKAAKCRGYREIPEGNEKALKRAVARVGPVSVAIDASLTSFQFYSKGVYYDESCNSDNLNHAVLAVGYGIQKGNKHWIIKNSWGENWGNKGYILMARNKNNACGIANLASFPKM
Method: Stock solutions of substrate or inhibitor were made up to 10 mM in 100% dimethylsulfoxide (DMSO) (Rathburns, Glasgow, U.K.) and diluted as appropriately required. In all cases the DMSO concentration in the assays was maintained at less than 1% (vol./vol.). The equilibrium inhibition constants (Ki^ss) for each compound were measured under steady-state conditions monitoring enzyme activity as a function of inhibitor concentration. […] B. […] The apparent inhibition constant (Ki) for each compound was determined on the basis that inhibition was reversible and occurred by a pure-competitive mechanism. […] F. Trends Biochem. […] Morrison, J. F. Biochim. Biophys. […] Curves were fitted by non-linear regression analysis (Prism) using a fixed value for the enzyme concentration.

[2] = molecular target: T2, Human recombinant cathepsin S (Homo sapiens, UniProt P25774); experiment: In vitro cathepsin Ki inhibition measurement, cathepsin S; assay type: biochemical
T2 construct: purchased Merck 219343; host or cells: E. coli
T2 sequence (P25774 115-331): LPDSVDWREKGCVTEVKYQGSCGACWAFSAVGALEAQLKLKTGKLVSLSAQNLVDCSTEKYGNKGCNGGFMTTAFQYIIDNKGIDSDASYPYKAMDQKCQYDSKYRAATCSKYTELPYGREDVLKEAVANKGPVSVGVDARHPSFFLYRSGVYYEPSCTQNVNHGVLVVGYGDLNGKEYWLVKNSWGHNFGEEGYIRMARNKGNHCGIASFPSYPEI
Method: Stock solutions of substrate or inhibitor were made up to 10 mM in 100% dimethylsulfoxide (DMSO) (Rathburns, Glasgow, U.K.) and diluted as appropriately required. In all cases the DMSO concentration in the assays was maintained at less than 1% (vol./vol.). The equilibrium inhibition constants (Ki^ss) for each compound were measured under steady-state conditions monitoring enzyme activity as a function of inhibitor concentration. […] The apparent inhibition constant (Ki) for each compound was determined on the basis that inhibition was reversible and occurred by a pure-competitive mechanism. […] Biophys. […] Curves were fitted by non-linear regression analysis (Prism) using a fixed value for the enzyme concentration.

Question: `O=C(N[C@H](C(=O)N1C[C@H](Cl)[C@H]2OCC(=O)[C@H]21)C1CCCCC1)c1cccc(-n2ccnc2)c1` [EXAMPLE 3, N—((S)-2-((3aS,6S,6aS)-6-chloro-3-oxodihydro-2H-furo[3,2-b]pyrrol-4(5H,6H,6aH)-yl)-1-cyclohexyl-2-oxoethyl)-3-(1H-imidazol-1-yl)benzamide] was tested. Which Ki [1] did it give?
Answer: 23 nM

Question: How did the “fold improvement in in vitro potency against human cathepsin S” value ([2]; relative to Compound 1) turn out when `O=C(N[C@H](C(=O)N1C[C@H](F)[C@H]2OCC(=O)[C@H]21)C1CCCCC1)c1ccccc1` [Compound 2] was run?
Answer: 3.8 fold

Question: What about the Ki [1] of the same molecule?
Answer: 95 nM

Question: And the “fold improvement in in vitro potency against human cathepsin K” value ([1]; relative to Compound 1)?
Answer: 3.2 fold

Question: How did the Ki [1] turn out when `O=C(N[C@H](C(=O)N1C[C@@H](Cl)[C@H]2OCC(=O)[C@H]21)C1CCCCC1)c1cccc(-n2ccnc2)c1` [Compound 5] was run?
Answer: 230 nM

Question: How did the Ki [1] turn out when `O=C(N[C@H](C(=O)N1C[C@H](Cl)[C@H]2OCC(=O)[C@H]21)C1CCCCC1)c1ccccc1` [EXAMPLE 1, N—((S)-2-((3aS,6S,6aS)-6-chloro-3-oxodihydro-2H-furo[3,2-b]pyrrol-4(5H,6H,6aH)-yl)-1-cyclohexyl-2-oxoethyl)benzamide] was run?
Answer: 35 nM

Question: How did the Ki [1] turn out when `O=C(N[C@@H](CC1CCCCC1)C(=O)N1CC[C@H]2OCC(=O)[C@H]21)c1ccccc1` [Prior art compound 38, reference compound] was run?
Answer: > 4000 nM

Question: `O=C(N[C@H](C(=O)N1C[C@H](Cl)[C@H]2OCC(=O)[C@H]21)C1CCCCC1)c1cccc(-n2cnnn2)c1` [EXAMPLE 2, N—((S)-2-((3aS,6S,6aS)-6-chloro-3-oxodihydro-2H-furo[3,2-b]pyrrol-4(5H,6H,6aH)-yl)-1-cyclohexyl-2-oxoethyl)-3-(1H-tetrazol-1-yl)benzamide] was tested. Which “fold improvement in in vitro potency against human cathepsin S” value ([2]; relative to compound 3) did it give?
Answer: 47 fold

Question: What about the Ki [1] of the same molecule?
Answer: 27 nM

Question: What about the “fold improvement in in vitro potency against human cathepsin K” value ([1]; relative to compound 3) of the same molecule?
Answer: 20.5 fold

Question: `O=C(N[C@H](C(=O)N1C[C@H](F)[C@H]2OCC(=O)[C@H]21)C1CCCCC1)c1cccc(-n2cnnn2)c1` [Compound 4] was tested. Which “fold improvement in in vitro potency against human cathepsin S” value ([2]; relative to compound 3) did it give?
Answer: 3.4 fold

Question: What about the Ki [1] of the same molecule?
Answer: 340 nM

Question: And the “fold improvement in in vitro potency against human cathepsin K” value ([1]; relative to compound 3)?
Answer: 1.7 fold

Question: How did the Ki [1] turn out when `O=C(N[C@H](C(=O)N1CC[C@H]2OCC(=O)[C@H]21)C1CCCCC1)c1cccc(-n2cnnn2)c1` [Compound 3] was run?
Answer: 560 nM
